According to patent US12358932B2, “Chemical compounds” (BORAH, INC., priority 2019, dated 2025):

Assays:
JAK = experiment: Biochemical Kinase Assay Protocol (JAK); settings: for Activity Note: JAK: compound list, + = noted target activity, number of * = preference; for JAK activity: compared to compounds of the disclosure
Procedure: Biochemical Kinase Assay Protocol (JAK, TrkA, Syk, Tyk2)
Reagent: Base Reaction buffer; 20 mM Hepes (pH 7.5), 10 mM MgCl2, 1 mM EGTA, 0.02% Brij™ 35, 0.02 mg/ml BSA, 0.1 mM Na3VO4, 2 mM DTT, 1% DMSO, where required cofactors are added individually to each kinase reaction.
• 1. Prepare indicated substrate in freshly prepared Base Reaction Buffer • 2. Deliver any required cofactors to the substrate solution above • 3. Deliver indicated kinase (JAK or TrkA) into the substrate solution and gently mix • 4. Deliver compounds in DMSO into the kinase reaction mixture by Acoustic technology (Echo550; nanoliter range), incubate for 20 minutes at room temperature • 5. Deliver 33P-ATP into the reaction mixture to initiate the reaction. • 6. Incubate kinase reaction for 2 hours at room temperature • 7. Reactions are spotted onto P81 ion exchange paper • 8. Detect kinase activity by filter-binding method. PDE4B Phosphodiesterase Assay

Recombinant human PDE4B = target: T1, Recombinant human PDE4B (Homo sapiens, UniProt Q07343); experiment: PDE4B Phosphodiesterase Assay; type: biochemical; settings: compared to compounds of the disclosure
T1 construct: aa 305-end; GST (N); made in house; host or cells: Sf9 insect cells (baculovirus)
In short: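 N-terminal GST-tagged human PDE4B (aa 305-end, Sf9-expressed) preincubated 10 min with compound in 10 mM Tris-HCl pH 7.5, 5 mM MgCl2, 0.01% Brij 35, 1 mM DTT, 1% DMSO, then 1 h at room temperature with 1 μM cAMP. AMP detected by Transcreener fluorescence polarization (Ex/Em 620/688), converted to nM product; % activity relative to DMSO.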

T1 sequence (Q07343 305-736 limits assumed): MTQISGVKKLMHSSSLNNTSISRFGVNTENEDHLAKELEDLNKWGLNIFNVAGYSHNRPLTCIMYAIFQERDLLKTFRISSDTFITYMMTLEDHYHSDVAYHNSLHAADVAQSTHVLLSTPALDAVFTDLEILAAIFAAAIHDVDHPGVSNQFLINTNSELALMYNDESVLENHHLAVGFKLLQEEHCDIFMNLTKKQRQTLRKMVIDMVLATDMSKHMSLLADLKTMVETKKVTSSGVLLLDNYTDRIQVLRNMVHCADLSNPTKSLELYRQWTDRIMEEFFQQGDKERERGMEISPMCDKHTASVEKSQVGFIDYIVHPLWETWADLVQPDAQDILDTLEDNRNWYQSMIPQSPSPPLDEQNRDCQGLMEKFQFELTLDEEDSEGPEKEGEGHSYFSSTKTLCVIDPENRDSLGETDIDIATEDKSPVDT

Question: For `Cc1cc(Nc2ncc(Cl)c(NC3CCCC3)n2)cc2c1B(O)OC2` [5-((5-chloro-4-(cyclopentylamino)pyrimidin-2-yl)amino)-7-methylbenzo[c][1,2]oxaborol-1(3H)-ol], which “Activity Note: JAK” value (JAK) is on record?
Answer: Its value is “JAK+***”.

Question: `Cc1cnc(Nc2ccc3c(c2)B(O)OC3)nc1Nc1cccc(S(C)(=O)=O)c1` [6-((5-methyl-4-((3-(methylsulfonyl)phenyl)amino)pyrimidin-2-yl)amino)benzo[c][1,2]oxaborol-1(3H)-ol] was tested. Which “Activity Note: JAK” value (JAK) did it give?
Answer: Its value is “JAK+*”.

Question: With `CCC(CC)Nc1nc(Nc2cc(Cl)c3c(c2)C(C)(C)OB3O)ncc1C` [7-chloro-3,3-dimethyl-5-((5-methyl-4-(pentan-3-ylamino)pyrimidin-2-yl)amino)benzo[c][1,2]oxaborol-1(3H)-ol] as the compound, how does the “Activity Note: JAK” value (JAK) read?
Answer: The value was “JAK+***”.

Question: How did the “Activity Note: JAK” value (JAK) turn out when `CCc1cc(N(c2ncc(C)c(NC(CC)CC)n2)S(=O)(=O)C(F)(F)F)cc2c1B(O)OC2` [N-(7-ethyl-1-hydroxy-1,3-dihydrobenzo[c][1,2]oxaborol-5-yl)-1,1,1-trifluoro-N-(5-methyl-4-(pentan-3-ylamino)pyrimidin-2-yl)methanesulfonamide] was run?
Answer: The value was “JAK+*”.

Question: Which “Activity Note: JAK” value (JAK) does the source give for `Cc1cnc(Nc2ccc3c(c2)B(O)OC3)nc1NC1CCN(C)CC1` [6-((5-methyl-4-((1-methylpiperidin-4-yl)amino)pyrimidin-2-yl)amino)benzo[c][1,2]oxaborol-1(3H)-ol] here?
Answer: Its value is “JAK+*”.

Question: Which “Activity Note: JAK” value (JAK) does the source give for `Cc1cnc(Nc2cc(C)c3c(c2)COB3O)nc1Nc1ccccc1` [7-methyl-5-((5-methyl-4-(phenylamino)pyrimidin-2-yl)amino)benzo[c][1,2]oxaborol-1(3H)-ol] here?
Answer: The value was “JAK+***”.

Question: For `Cc1cc(Nc2ncc(Cl)c(NC3CCCC3)n2)cc2c1B(O)OC2(C)C` [5-((5-chloro-4-(cyclopentylamino)pyrimidin-2-yl)amino)-3,3,7-trimethylbenzo[c][1,2]oxaborol-1(3H)-ol], which “Activity Note: JAK” value (JAK) is on record?
Answer: Its value is “JAK+***”.

Question: `CC1(C)OB(O)c2c(Cl)cc(Nc3ncc(Cl)c(NC4CCCC4)n3)cc21` [7-chloro-5-((5-chloro-4-(cyclopentylamino)pyrimidin-2-yl)amino)-3,3-dimethylbenzo[c][1,2]oxaborol-1(3H)-ol] was tested. Which “Activity Note: JAK” value (JAK) did it give?
Answer: Its value is “JAK+***”.

Question: With `CCCNc1nc(Nc2ccc3c(c2)B(O)OC3)ncc1I` [6-((5-iodo-4-(propylamino)pyrimidin-2-yl)amino)benzo[c][1,2]oxaborol-1(3H)-ol] as the compound, how does the “Activity Note: JAK” value (JAK) read?
Answer: The value was “JAK+*”.

Question: For `Cc1cnc(Nc2ccc3c(c2)C(C)(C)OB3O)nc1Nc1ccccc1` [3,3-dimethyl-5-((5-methyl-4-(phenylamino)pyrimidin-2-yl)amino)benzo[c][1,2]oxaborol-1(3H)-ol], which “Activity Note: JAK” value (JAK) is on record?
Answer: The value was “JAK+***”.

Question: How did the “Activity Note: JAK” value (JAK) turn out when `CC1(C)OB(O)c2ccc(Nc3ncc(Cl)c(NC4CCCC4)n3)cc21` [5-((5-chloro-4-(cyclopentylamino)pyrimidin-2-yl)amino)-3,3-dimethylbenzo[c][1,2]oxaborol-1(3H)-ol] was run?
Answer: Its value is “JAK+***”.

Question: Which “Activity Note: JAK” value (JAK) does the source give for `Cc1cnc(Nc2ccc3c(c2F)B(O)OC3)nc1Nc1cccc(S(C)(=O)=O)c1` [7-fluoro-6-((5-methyl-4-((3-(methylsulfonyl)phenyl)amino)pyrimidin-2-yl)amino)benzo[c][1,2]oxaborol-1(3H)-ol] here?
Answer: The value was “JAK+*”.

Question: For `Cc1cnc(Nc2ccc3c(c2)B(O)OC3)nc1NC1CCC(C)CC1` (centres unmarked) [6-((5-methyl-4-((4-methylcyclohexyl)amino)pyrimidin-2-yl)amino)benzo[c][1,2]oxaborol-1(3H)-ol], which “Activity Note: JAK” value (JAK) is on record?
Answer: Its value is “JAK+**”.

Question: With `Cc1cnc(Nc2cc3c(c(C(F)(F)F)c2)B(O)OC3)nc1Nc1ccccc1` [5-((5-methyl-4-(phenylamino)pyrimidin-2-yl)amino)-7-(trifluoromethyl)benzo[c][1,2]oxaborol-1(3H)-ol] as the compound, how does the “Activity Note: JAK” value (JAK) read?
Answer: The value was “JAK+***”.

Question: With `CCC(CC)Nc1nc(Nc2ccc3c(c2)B(O)OC3)ncc1C` [6-((5-methyl-4-(pentan-3-ylamino)pyrimidin-2-yl)amino)benzo[c][1,2]oxaborol-1(3H)-ol] as the compound, how does the “Activity Note: JAK” value (JAK) read?
Answer: Its value is “JAK+*”.

Question: For `CCC(CC)Nc1nc(Nc2ccc3c(c2)C(C)OB3O)ncc1C` (centres unmarked) [3-methyl-5-((5-methyl-4-(pentan-3-ylamino)pyrimidin-2-yl)amino)benzo[c][1,2]oxaborol-1(3H)-ol], which “Activity Note: JAK” value (JAK) is on record?
Answer: The value was “JAK+***”.

Question: With `Cc1cnc(Nc2ccc3c(c2)C(C)OB3O)nc1NC1CCCC1` (centres unmarked) [5-((4-(cyclopentylamino)-5-methylpyrimidin-2-yl)amino)-3-methylbenzo[c][1,2]oxaborol-1(3H)-ol] as the compound, how does the “Activity Note: JAK” value (JAK) read?
Answer: The value was “JAK+***”.

Question: `CCc1cc(Nc2ncc(C)c(NC(CC)CC)n2)cc2c1B(O)OC2` [7-ethyl-5-((5-methyl-4-(pentan-3-ylamino)pyrimidin-2-yl)amino)benzo[c][1,2]oxaborol-1(3H)-ol] was tested. Which “Activity Note: JAK” value (JAK) did it give?
Answer: The value was “JAK+***”.

Question: `Cc1cnc(Nc2ccc3c(c2C)B(O)OC3)nc1Nc1cccc(S(C)(=O)=O)c1` [7-methyl-6-((5-methyl-4-((3-(methylsulfonyl)phenyl)amino)pyrimidin-2-yl)amino)benzo[c][1,2]oxaborol-1(3H)-ol] was tested. Which “Activity Note: JAK” value (JAK) did it give?
Answer: Its value is “JAK+*”.

Question: For `Cc1cnc(N(C)c2ccc3c(c2)COB3O)nc1OC1CCCCC1` [A, 5-((4-(cyclohexyloxy)-5-methylpyrimidin-2-yl)(methyl)amino)benzo[c][1,2]oxaborol-1(3H)-ol, reference compound], which PDE4 activity (Recombinant human PDE4B) is on record?
Answer: The PDE4 activity was “diminish in PDE4 activity”.

Question: What about the JAK activity (JAK) of the same compound?
Answer: The JAK activity was “no JAK activity or significantly decreased JAK activity”.

Question: How did the “Activity Note: JAK” value (JAK) turn out when `CCc1cc(Nc2ncc(C)c(Nc3ccccc3)n2)cc2c1B(O)OC2` [7-ethyl-5-((5-methyl-4-(phenylamino)pyrimidin-2-yl)amino)benzo[c][1,2]oxaborol-1(3H)-ol] was run?
Answer: The value was “JAK+***”.

Question: What does the source list for `Cc1cnc(N(C)c2ccc3c(c2)COB3O)nc1NC1CCCC1` [B, 5-((4-(cyclopentylamino)-5-methylpyrimidin-2-yl)(methyl)amino)benzo[c][1,2]oxaborol-1(3H)-ol, reference compound]?
Answer: PDE4 activity (Recombinant human PDE4B): diminish in PDE4 activity; JAK activity (JAK): no JAK activity or significantly decreased JAK activity

Question: For `CCc1cc(Nc2nccc(NC3CCCC3)n2)cc2c1B(O)OC2` [5-((4-(cyclopentylamino)pyrimidin-2-yl)amino)-7-ethylbenzo[c][1,2]oxaborol-1(3H)-ol], which “Activity Note: JAK” value (JAK) is on record?
Answer: The value was “JAK+**”.

Question: How did the “Activity Note: JAK” value (JAK) turn out when `Cc1cnc(Nc2ccc3c(c2)C(C)(C)OB3O)nc1NC1CCCC1` [5-((4-(cyclopentylamino)-5-methylpyrimidin-2-yl)amino)-3,3-dimethylbenzo[c][1,2]oxaborol-1(3H)-ol] was run?
Answer: The value was “JAK+***”.

Question: Which “Activity Note: JAK” value (JAK) does the source give for `CCC(CC)Nc1nc(Nc2ccc3c(c2)C(C)(C)OB3O)ncc1C` [3,3-dimethyl-5-((5-methyl-4-(pentan-3-ylamino)pyrimidin-2-yl)amino)benzo[c][1,2]oxaborol-1(3H)-ol] here?
Answer: Its value is “JAK+***”.

Question: `CCC(CC)Nc1nc(Nc2cc3c(c(C(F)(F)F)c2)B(O)OC3)ncc1C` [5-((5-methyl-4-(pentan-3-ylamino)pyrimidin-2-yl)amino)-7-(trifluoromethyl)benzo[c][1,2]oxaborol-1(3H)-ol] was tested. Which “Activity Note: JAK” value (JAK) did it give?
Answer: The value was “JAK+***”.

Question: How did the “Activity Note: JAK” value (JAK) turn out when `COc1cc(Nc2ncc(C)c(SC)n2)cc2c1B(O)OC2` [7-methoxy-5-((5-methyl-4-(methylthio)pyrimidin-2-yl)amino)benzo[c][1,2]oxaborol-1(3H)-ol] was run?
Answer: Its value is “JAK+**”.

Question: Which “Activity Note: JAK” value (JAK) does the source give for `Cc1cnc(Nc2cc(C)c3c(c2)C(C)(C)OB3O)nc1Nc1ccccc1` [3,3,7-trimethyl-5-((5-methyl-4-(phenylamino)pyrimidin-2-yl)amino)benzo[c][1,2]oxaborol-1(3H)-ol] here?
Answer: The value was “JAK+***”.

Question: With `CCc1cc(Nc2ncc(Cl)c(NC3CCCC3)n2)cc2c1B(O)OC2` [5-((5-chloro-4-(cyclopentylamino)pyrimidin-2-yl)amino)-7-ethylbenzo[c][1,2]oxaborol-1(3H)-ol] as the compound, how does the “Activity Note: JAK” value (JAK) read?
Answer: The value was “JAK+***”.

Question: How did the “Activity Note: JAK” value (JAK) turn out when `Cc1cnc(Nc2cc(Cl)c3c(c2)C(C)(C)OB3O)nc1Nc1ccccc1` [7-chloro-3,3-dimethyl-5-((5-methyl-4-(phenylamino)pyrimidin-2-yl)amino)benzo[c][1,2]oxaborol-1(3H)-ol] was run?
Answer: Its value is “JAK+***”.
